Assay results: patent publication US6495588B2, “Scytonemin and methods of using thereof” (The Regents of the University of California, priority 2000, dated 2002)

Assays:
[1] = system: RTX-induced mouse ear edema; assay: Resiniferatoxin (RTX)-induced mouse ear edema assay; assay type: in vivo; settings: systemic
Protocol: Various dilutions of test compounds were topically applied in acetone to the inside and outside surfaces of the left ears of mice in a solution comprising 0.1 μg RTX or 250 μg CAP per ear. A control, acetone, was applied to all right ears. After a 30 minute incubation, the mice were sacrificed, the ears removed, and bores taken and weighed.
For systemic studies, the test compounds were administered by intraperitoneal injection in a vehicle comprising 20% propylene glycol, 80% saline and 3 drops TWEEN-20 30 minutes or 1 hour prior to topical application of RTX or CAP. Control animals were injected with vehicle only. 0.1 μg RTX or 250 μg CAP was applied to the left ears and acetone was applied to the right ears. After 30 minutes of incubation, the mice were scarified, ears removed and bores taken and weighed.
Edema was measured by subtracting the weight of the right ear (control) from the weight of the left ear. The results were recorded as % decrease (inhibition) or % increase (potentiation) in edema relative to the control group edema.

[2] = system: PMA-induced mouse ear skin hyperplasia; assay: Tissue hyperplasia assay (PMA-induced mouse ear skin hyperplasia); assay type: in vivo
Protocol: To determine the in vivo efficacy of syctonemin, PMA-induced mouse ear skin hyperplasia model was used. As one cause of tissue hyperplasia is chronic inflammation, mouse ear skin was exposed to multiple PMA applications to simulate chronic inflammation. Specifically, 0.125, 0.25, 0.5, or 1.0 mg of scytonemin in 20 μl of 20% DMSO and 80% acetone was applied to the inner pinnae of the left ears of male, Swiss Webster mice (Taconic Farms, Germantown, N.Y.) at 0, 5, 24, 29, 48, and 53 hours. The inner pinnae of the right ears received only 10 μl of vehicle and 10 μl of acetone at 0, 5, 24, 29, 48, and 53 hours. At 0.5 and 48.5 hours, 4 μg/ear PMA (Sigma, St. Louis, Mo.) in 10 μl acetone was applied to the inner pinnae the left ears and 10 μl acetone was applied to each right ear. One hour after the last scytonemin application (54 hours) each mouse was injected with 0.6 ml of a solution containing IUdR (2 μCi-I^125/mouse) and 26 μg FUdR. This IUdR/FUdR solution was made up in RPMI 1640 media. At 72 hours, the mice were euthanized via CO2 inhalation, the ears were excised and soaked individually in a 70% EtOH solution overnight.
At 96 hours, IUdR incorporation was then measured using a Beckman Gamma counter, Model 5500B. […] IUdR incorporated was calculated by the following equation: % IUdR incorporation=(Count of Ear−Background)/(Total Count−Background). The percent of control of IUdR incorporation was calculated by the following equation: % Control=(% IUdR Uptake in Sample Ear)/(% IUdR Uptake PMA−Treated Control Ear)×100.
Alternatively, the cyrosections of the mouse ears were stained and histologically analyzed. […]
At 72 hours, the mice were euthanized and the ears were immediately embedded in a suitable hypoxy resin such as OCT media and snap frozen using melting isopentane using conventional methods. […] The sections were fixed and stained with hematoxlin and then analyzed under a microscope with a 10× magnification.

PKA = molecular target: T1, PKA (Bos taurus, UniProt P00517); assay: PKA activity assay; assay type: biochemical, bovine
T1 construct: 0.5 μg PKA (from bovine heart supplied by Sigma, St. Louis, Mo.); purchased Sigma, St. Louis, Mo; host or cells: bovine heart tissue
Protocol: RhPKCβ2 was expressed in a baculovirus expression system. Kinase reactions were conducted in 50 μl comprising 0.5 μg rhPKC diluted in 2 mM Tris, and 100 μM EGTA and reaction buffer comprising substrate (0.9 mM EGTA, 1.1 mM CaCl2, 0.01 mg/ml glycogen synthase peptide (H-[…]OH) (Bachem, King of Prussia, Pa.), 40 μg/ml L-α-Phosphatidyl-L-serine, 1 μg/ml 1,3-Diolen, 10 mM MgCl2, pH 7.5). To assess PKA activity, kinase reactions were conducted in 50 μl comprising 0.5 μg PKA (from bovine heart supplied by Sigma, St. Louis, Mo.) diluted in 10 mM MOPS, pH 6.5 and reaction buffer comprising substrate (50 mM MOPS, pH 6.5, 10 mM MgCl2, 0.1 mg/ml Histone-IIA (Sigma, St. Louis, Mo.), 1 μM cAMP). An ATP solution (0.01 μM ATP and 0.5 μCi of [γ^33-P] ATP) was then added to the wells in both assay systems. Inhibitors were added at the indicated concentrations with a final DMSO concentration of 10%. Reactions were allowed to proceed for 20 minutes at 37° C. and were stopped with 25 mM EDTA. The reactions were spotted onto filter paper, washed four times in a beaker comprising 75 mM phosphoric acid and rinsed with acetone. Filters were dried and put in scintillation vials with fluid and counted.

[3] = system: PMA-induced cell proliferation in mouse ear epidermis; assay: Mouse ear cell proliferation assay (IUdR incorporation, PCNA histology); assay type: in vivo
Protocol: To determine the efficacy of scytonemin as an anti-proliferative agent in vivo, the following assay was conducted. On day one, test compounds were delivered in 10 μl 20% DMSO, 80% acetone and applied to both the inner and outer pinnae of left ears (20 μl total) of male, Swiss Webster mice (Taconic Farms, Germantown, N.Y.). The right ears received only vehicle. One hour post test compound application, 4 μg/ear PMA (Sigma, St. Louis, Mo.) in 10 μl acetone was applied to the inner pinnae of each left ear and 10 μl acetone was applied to each right ear. Four hours post test compound application, the each test compound was again applied in the same manner. On day two, the test compounds were applied twice with a four-hour interval between each application. On day three, the test compounds and PMA were applied as they had been on day one.
One hour after the final test compound applications, each mouse was injected with 0.6 ml of a solution containing the thymidine analogue, 5-iodo-I^125-2′-deoxyuridine (IUdR) (2 μCi-I^125/mouse) and, to inhibit the endogenous deoxythymidilic acid synthetase, fluorodeoxyuridine (FUdR) ([…]). This IUdR/FUdR solution was made up in RPMI 1640 media. Eighteen hours post injection, the mice were euthanized via CO2 inhalation, the ears were excised and soaked individually in a 70% EtOH solution overnight.
IUdR incorporation was then measured using a Beckman Gamma counter, Model 5500B. […] Therefore, scytoneman compounds may be used to reduce, prevent, inhibit, modulate, or attenuate cell proliferation.
Additionally, immunostaining with Proliferating Cell Nuclear Antigen (PCNA) was used as a proliferation marker to identify proliferating cells. PCNA is a cofactor for DNAt […]. Expression levels of PCNA fluctuate over the cell cycle. […] Low expression levels of PCNA indicate non-cycling cells.
Histological analysis was used to determine the effect of scytonemin on the thickness of the epidermal layer of skin, the mitotic index of cells in the epidermal layer, the number of cells in the epidermis, and the amount of immune cell infiltration. PCNA antibodies were used to detect the presence of PCNA in cells and a peroxidase-Ni/DAB development system was used to stain PCNA-positive cells black and hematoxlin was used as a nuclear blue counterstain using conventional methods.

[4] = system: PMA-induced mouse ear edema; assay: PMA-induced mouse ear edema assay; assay type: in vivo; settings: topical application
Protocol: The efficacy of a scytoneman compound as an anti-inflammatory agent may be established by the following assay. The scytoneman compound is topically applied in acetone to the inside pinnae of the ears of mice in a solution comprising an irritant such as the edema-causing irritant, Phorbol 12-myristate 13-acetate (PMA). Specifically, 2 μg/ear of PMA alone or in combination with 50 μg/ear of the test compound, scytonemin, was applied to the left ears (5 mice per treatment group) and acetone was applied to all right ears. After 3 hours, 20 minutes incubation, the mice were sacrificed, the ears removed and bores taken and weighed. Edema was measured by subtracting the weight of the right ear (acetone control) from the weight of the left ear (treated). Results were recorded as % decrease (inhibition) or % increase (potentiation) in edema relative to the PMA control group edema.

scytonemin
inhibition of topical RTX-induced mouse ear edema ([1]; 25 mg/kg): 15%
inhibition of topical RTX-induced mouse ear edema ([1]; 50 mg/kg): 18%
inhibition of topical RTX-induced mouse ear edema ([1]; 150 mg/kg): 47%
thickness of the epidermal layer ([2]; PMA-treated mouse ears): reduced the thickness of the epidermal layer
tissue hyperplasia (histology, hematoxlin) ([2]; scytonemin 1 mg/ear, dexamethasone 0.15 mg/ear, PMA 4 μg/ear): to about normal
ED50 skin hyperplasia (IUdR incorporation) ([2]; topical): about 0.270±0.11 mg/ear
IC50 (PKA): > 10 µM
concentration at which PKA activity is significantly affected or inhibited (PKA; 0.01 μM ATP): ≥ 10 µM
cells actively proliferating (PCNA staining) ([3]; +PMA 4 μg/ear, scytonemin 1 mg/ear, dexamethasone 0.15 mg/ear): about 60%
mitotic index of epidermal cells ([3]; PMA-treated mouse ears, 5% SCY): reduces the mitotic index
cell proliferation in vivo (IUdR incorporation) ([3]; topical, PMA 4 μg/ear): effectively reduced or prevented cell proliferation in vivo
ED50 PMA-induced mouse ear edema and tissue myeloperoxidase activity [4]: about 10.9±5 μg per ear
